For 25 compounds, CC50 and EC50 results are on record in patent publication US8536187B2 (Gilead Sciences, Inc., priority 2008, dated 2013).

A short description of data set [1]: CC50 assay (CellTiter-Glo) in Huh-7 HCV replicon cells. Format: cell-based. Particulars: human. The method, boiled down:
(§1)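 Huh-7 cells carrying HCV replicon (6000/well) incubated with serially diluted compound, 0.5% DMSO final, 3 days at 37° C, 5% CO2. EC50 from luciferase luminescence after 30 min lysis/substrate at room temperature; CC50 from CellTiter-Glo luminescence after 10 min at room temperature.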
(In ATP-based viability assays light output follows the ATP content of the culture.)

For data set [2], the system named is HCV replicon in human hepatoma Huh-7 cell line. In words: Anti-HCV replicon assay, EC50 (luciferase luminescence). Format: cell-based. As to conditions: Hepatitis C virus, Huh-7, 72 h. The gist of the method: as §1
(A replicon is a self-replicating genome or part of one, used to study replication in cells.)

Where only a bound is given, the exact number is not on record here.

A word on the CC50: it is the concentration giving 50% cytotoxicity. One may read the EC50 as the concentration giving half of the maximal effect. A higher EC50 goes with a need for much substance.

`COc1ccc(-c2ccc3nc(NCc4cccc(S(C)(=O)=O)c4)nc(NC4(C(F)(F)F)CC4)c3n2)cc1S(C)(=O)=O` [Example 35, N^2-(3-(methylsulfonyl)benzyl)-6-(4-methoxy-3-(methylsulfonyl)phenyl)-N^4-(1-(trifluoromethyl)cyclopropyl) pyrido[3,2-d]pyrimidine-2,4-diamine] returned a CC50 at 3 days in data set [1] (Table 2, 3 days incubation) of 1 to 10 µM. The compound further gave an EC50 in data set [2] of less than 0.1 µM.

In the case of `Fc1cc(-c2ccc3nc(NCc4cccc(-n5cncn5)c4)nc(NC4(C(F)(F)F)CC4)c3n2)cnc1NC1CC1` [Example 62, N^2-(3-(1H-1,2,4-triazol-1-yl)benzyl)-6-(6-(cyclopropylamino)-5-fluoropyridin-3-yl)-N^4-(1-(trifluoromethyl)cyclopropyl) pyrido[3,2-d]pyrimidine-2,4-diamine], the 50% cytotoxic concentration (CC50) at 3 days in data set [1] (Table 2, 3 days incubation) was more than 10 µM. This compound returned a half-maximal effective concentration (EC50) in data set [2] of less than 0.1 µM.

`CCOc1ccc(-c2ccc3nc(NCc4ccc(-n5cncn5)cc4)nc(NCC(F)(F)F)c3n2)cc1S(C)(=O)=O` [Example 183, N^2-(4-(1H-1,2,4-triazol-1-yl)benzyl)-6-(4-ethoxy-3-(methylsulfonyl)phenyl)-N^4-(2,2,2-trifluoroethyl)pyrido [3,2-d]pyrimidine-2,4-diamine] registered a CC50 at 3 days in data set [1] (Table 2, 3 days incubation) of 1 to 10 µM. The compound also returned an EC50 in data set [2] of less than 0.1 µM.

Turning to `CC1(Oc2nc(NCc3cc(Cl)cc(S(N)(=O)=O)c3)nc3ccc(C#CC4CC4)nc23)CC1` [Example 301, 3-chloro-5-((6-(2-cyclopropyl-ethynyl)-4-(1-methylcyclo-propoxy)pyrido[3,2-d]pyrimidin-2-ylamino)methyl) benzenesulfonamide], the CC50 at 3 days in data set [1] (Table 2, 3 days incubation) was more than 10 µM. For the same compound, the EC50 in data set [2] was less than 0.1 µM.

In the case of `CC(C)(O)CNc1nc(NCC(F)(F)F)c2nc(-c3cccc(S(C)(=O)=O)c3)ccc2n1` [Example 159, 2-methyl-1-(6-(3-(methylsulfonyl)phenyl)-4-(2,2,2-trifluoroethylamino)pyrido[3,2-d]pyrimidin-2-ylamino)propan-2-ol], the CC50 at 3 days in data set [1] (Table 2, 3 days incubation) was more than 10 µM. Also, the 50% effective concentration (EC50) in data set [2] fell in the range of 0.1 to 0.25 µM.

In turn, `Cc1ccc(-c2ccc3nc(NCc4cccc(S(C)(=O)=O)c4)nc(NCC(F)(F)F)c3n2)cc1S(C)(=O)=O` [Example 173, N^2-(3-(methylsulfonyl)benzyl)-6-(4-methyl-3-(methylsulfonyl)phenyl)-N^4-(2,2,2-trifluoroethyl) pyrido[3,2-d]pyrimidine-2,4-diamine] displayed a CC50 at 3 days in data set [1] (Table 2, 3 days incubation) of 1 to 10 µM. The EC50 in data set [2] was less than 0.1 µM.

In data set [1] (Table 2, 3 days incubation), `NS(=O)(=O)c1cc(CNc2nc(NC3(C(F)(F)F)CC3)c3nc(-c4ccc(F)cc4)ccc3n2)ccc1F` [Example 25, 2-fluoro-5-{[6-(4-fluorophenyl)-4-(1-trifluoromethyl-cyclopropylamino)-pyrido[3,2-d]pyrimidin-2-ylamino]-methyl}-benzenesulfonamide] displayed a CC50 at 3 days of more than 10 µM. The EC50 in data set [2] was less than 0.1 µM.

Turning to `C[C@H](Nc1nc(NCc2ccc(-n3cncn3)cc2)nc2ccc(C#CC3CC3)nc12)C(F)(F)F` [Example 292, (S)-N^2-(4-(1H-1,2,4-triazol-1-yl)benzyl)-6-(2-cyclopropyl-ethynyl)-N^4-(1,1,1-trifluoro-propan-2-yl)pyrido[3,2-d] pyrimidine-2,4-diamine], the CC50 at 3 days in data set [1] (Table 2, 3 days incubation) was more than 10 µM. In data set [2], this compound yielded an EC50 of 0.25 to 2 µM.

`COc1ccc(CNc2nc(NCC(F)(F)F)c3nc(-c4ccc(F)cc4)ccc3n2)cc1S(N)(=O)=O` [Example 6]: the CC50 at 3 days in data set [1] (Table 1, 3 days incubation) is more than 25 µM. Also, the EC50 in data set [2] lay within 0.1 to 0.25 µM.

The compound `NS(=O)(=O)c1ccc(Cl)c(CNc2nc(NC3(C(F)(F)F)CC3)c3nc(-c4ccc(F)cc4)ccc3n2)c1` [Example 41, 4-chloro-3-((6-(4-fluorophenyl)-4-(1-(trifluoromethyl)cyclopropyl-amino)pyrido[3,2-d]pyrimidin-2-ylamino)methyl)benzene-sulfonamide] yielded a CC50 at 3 days in data set [1] (Table 2, 3 days incubation) of 1 to 10 µM. Besides, the EC50 in data set [2] lay in the range of 0.1 to 0.25 µM.

In the case of `FC(F)(F)CNc1nc(NCc2ccc(-n3cncn3)cc2)nc2ccc(-c3ccc(OC4CC4)nc3)nc12` [Example 246, N^2-(4-(1H-1,2,4-triazol-1-yl)benzyl)-6-(6-cyclopropoxy-pyridin-3-yl)-N^4-(2,2,2-trifluoroethyl)pyrido[3,2-d] pyrimidine-2,4-diamine], in data set [1] (Table 2, 3 days incubation), the CC50 at 3 days is more than 10 µM. Also, in data set [2], the EC50 was less than 0.1 µM.

Compound `COc1ccc(-c2ccc3nc(NC(C)c4cc(F)cc(F)c4)nc(NCC(F)(F)F)c3n2)cc1S(C)(=O)=O` (centres unmarked) [Example 180, N^2-(1-(3,5-difluorophenyl)ethyl)-6-(4-methoxy-3-(methylsulfonyl)phenyl)-N^4-(2,2,2-trifluoroethyl)pyrido [3,2-d]pyrimidine-2,4-diamine] came in with a CC50 at 3 days in data set [1] (Table 2, 3 days incubation) of 1 to 10 µM. Also, the EC50 in data set [2] is 0.1 to 0.25 µM.

As for `NS(=O)(=O)c1ccc(CNc2nc(NCC(F)(F)F)c3nc(-c4ccc(OC(F)F)nc4)ccc3n2)cc1` [Example 244, 4-((6-(6-(difluoromethoxy)pyridin-3-yl)-4-(2,2,2-trifluoroethylamino)pyrido [3,2-d]pyrimidin-2-ylamino)methyl)benzene-sulfonamide], the CC50 at 3 days in data set [1] (Table 2, 3 days incubation) is more than 10 µM. Also, in data set [2], the concentration for a half-maximal effect (EC50) fell in the range of 0.1 to 0.25 µM.

For the compound `C[C@@H](Nc1nc(OC2(C)CC2)c2nc(C#CC3CC3)ccc2n1)c1ccc(S(N)(=O)=O)cc1` [Example 296, (R)-4-(1-(6-(2-cyclopropyl-ethynyl)-4-(1-methylcyclo-propoxy)pyrido[3,2-d]pyrimidin-2-ylamino)ethyl)benzene-sulfonamide], in data set [1] (Table 2, 3 days incubation), the half-maximal cytotoxic concentration (CC50) at 3 days is more than 10 µM. Further, the EC50 in data set [2] is less than 0.1 µM.

In data set [1] (Table 2, 3 days incubation), `C[C@@H](Cn1cncn1)Nc1nc(NCC(F)(F)F)c2nc(-c3cccc(S(C)(=O)=O)c3)ccc2n1` [Example 169, N^2-((S)-1-(1H-1,2,4-triazol-1-yl)propan-2-yl)-6-(3-(methylsulfonyl)phenyl)-N^4-(2,2,2-trifluoroethyl)pyrido [3,2-d]pyrimidine-2,4-diamine] showed a CC50 at 3 days of more than 10 µM. In addition, in data set [2], the EC50 lay within 0.25 to 2 µM.

In turn, `C[C@@H](Nc1nc(NC2(C(F)(F)F)CCCC2)c2nc(-c3ccc(F)cc3)ccc2n1)c1ccc(S(N)(=O)=O)cc1` [Example 71, (R)-4-(1-(6-(4-fluorophenyl)-4-(1-(trifluoromethyl)cyclo-pentylamino)pyrido[3,2-d]pyrimidin-2-ylamino)ethyl) benzenesulfonamide] registered a CC50 at 3 days in data set [1] (Table 2, 3 days incubation) of more than 10 µM. The EC50 in data set [2] is 0.25 to 2 µM.

Compound `NS(=O)(=O)c1ccc(CNc2nc(NCC(F)(F)F)c3nc(-c4ccc(F)cc4)ccc3n2)cc1Cl` [Example 5, 2-Chloro-4-{[6-(4-fluoro-phenyl)-4-(2,2,2-trifluoro-ethylamino)-pyrido[-3,2-d]pyrimidin-2-ylamino]-methyl}-benzenesulfonamide] displayed a CC50 at 3 days in data set [1] (Table 1, 3 days incubation) of more than 25 µM. For the same compound, in data set [2], the EC50 was less than 0.1 µM.

In turn, `Fc1cc(-c2ccc3nc(NCc4ccc(-n5cncn5)cc4)nc(NC4(C(F)(F)F)CC4)c3n2)cnc1NC1CC1` [Example 65, N^2-(4-(1H-1,2,4-triazol-1-yl)benzyl)-6-(6-(cyclopropylamino)-5-fluoropyridin-3-yl)-N^4-(1-(trifluoromethyl)cyclopropyl) pyrido[3,2-d]pyrimidine-2,4-diamine] registered a CC50 at 3 days in data set [1] (Table 2, 3 days incubation) of 1 to 10 µM. In data set [2], the EC50 was less than 0.1 µM.

For `COc1nc(N[C@H](C)c2ccc(S(N)(=O)=O)cc2)nc2ccc(C#CC3CC3)nc12` [Example 315, (R)-4-(1-(6-(2-cyclopropyl-ethynyl)-4-methoxypyrido [3,2-d]pyrimidin-2-ylamino)ethyl)benzenesulfonamide], the CC50 at 3 days in data set [1] (Table 2, 3 days incubation) is more than 10 µM. In data set [2], this compound yielded an EC50 of 0.25 to 2 µM.

In turn, `Cc1cc(S(N)(=O)=O)ccc1[C@H](C)Nc1nc(NC2(C(F)(F)F)CC2)c2nc(-c3ccc(F)cc3)ccc2n1` [Example 108, (S)-4-(1-(6-(4-fluorophenyl)-4-(1-(trifluoromethyl)cyclopropyl-amino)pyrido[3,2-d]pyrimidin-2-ylamino)ethyl)-3-methylbenzene-sulfonamide] showed a CC50 at 3 days in data set [1] (Table 2, 3 days incubation) of more than 10 µM. Besides, in data set [2], the half-maximal effective concentration (EC50) lay within 0.25 to 2 µM.

With `COc1ccc(-c2ccc3nc(NCc4ccc(C)c(F)c4)nc(NCC(F)(F)F)c3n2)cc1S(C)(=O)=O` [Example 176, N^2-(3-fluoro-4-methylbenzyl)-6-(4-methoxy-3-(methylsulfonyl)phenyl)-N^4-(2,2,2-trifluoroethyl) pyrido[3,2-d]pyrimidine-2,4-diamine], in data set [1] (Table 2, 3 days incubation), the CC50 at 3 days was 1 to 10 µM. In data set [2], the EC50 is less than 0.1 µM.

In data set [1] (Table 2, 3 days incubation), `NS(=O)(=O)c1cc(Cl)cc(CNc2nc(NC3(C(F)(F)F)CC3)c3nc(-c4ccc(F)cc4)ccc3n2)c1` [Example 27, 3-chloro-5-{[6-(4-fluorophenyl)-4-(1-trifluoromethyl-cyclopropylamino)-pyrido[3,2-d]pyrimidin-2-ylamino]-methyl}-benzenesulfonamide] returned a 50% cytotoxic concentration (CC50) at 3 days of more than 10 µM. In data set [2], this compound returned an EC50 of 0.1 to 0.25 µM.

For the compound `C#Cc1ccc2nc(N[C@H](C)c3ccc(S(N)(=O)=O)cc3)nc(OC(C)C)c2n1` [Example 306, (R)-4-(1-(6-ethynyl-4-isopropoxypyrido[3,2-d]pyrimidin-2-ylamino)ethyl) benzenesulfonamide], the CC50 at 3 days in data set [1] (Table 2, 3 days incubation) is less than 1 µM. In data set [2], the EC50 lay within 0.25 to 2 µM.

In turn, `NS(=O)(=O)c1ccc(CNc2nc(NC3(C(F)(F)F)CC3)c3nc(C#CC4CC4)ccc3n2)cc1` [Example 92, 4-((6-(2-cyclopropylethynyl)-4-(1-(trifluoromethyl)cyclopropyl-amino)pyrido[3,2-d]pyrimidin-2-ylamino)methyl)benzene-sulfonamide] yielded a CC50 at 3 days in data set [1] (Table 2, 3 days incubation) of 1 to 10 µM. This compound also displayed an EC50 in data set [2] of less than 0.1 µM.

For the compound `COCC#Cc1ccc2nc(NCc3cc(Cl)cc(S(N)(=O)=O)c3)nc(NC3(C(F)(F)F)CC3)c2n1` [Example 46, 3-chloro-5-((6-(3-methoxyprop-1-ynyl)-4-(1-(trifluoromethyl)cyclopropyl-amino)pyrido[3,2-d]pyrimidin-2-ylamino)methyl)benzene-sulfonamide], in data set [1] (Table 2, 3 days incubation), the CC50 at 3 days is more than 10 µM. The EC50 in data set [2] is less than 0.1 µM.
